Columns and labels:
[1] = tested on: hypoxia-induced pulmonary vasoconstriction; assay: 40 ppm NO in healthy volunteers breathing 12% O2 (hypoxic, vasoconstricted lung); assay type: in vivo, human
Protocol: The effects of breathing 40 ppm NO were studied in five awake, healthy human volunteer subjects inhaling various gas mixtures for 10 min periods, with measurements starting at 6 min.

[2] = tested on: haemoglobin; settings: Meyer 1988; cited from earlier work

[N]=O [NO, nitric oxide]
CO ([1]; 12% O2 + 40 ppm NO, n = 5): 8.37 ± 1.68 L/min | CVP ([1]; 12% O2 + 40 ppm NO, n = 5): 5.2 ± 2.6 mmHg | MAP ([1]; 12% O2 + 40 ppm NO, n = 5): 86.0 ± 5.7 mmHg | PCWP ([1]; 12% O2 + 40 ppm NO, n = 5): 8.5 ± 2.2 mmHg | PVR ([1]; 12% O2 + 40 ppm NO, n = 5): 0.62 mmHg · min/l | PaCO2 ([1]; 12% O2 + 40 ppm NO, n = 5): 34 ± 5 mmHg | PaO2 ([1]; 12% O2 + 40 ppm NO, n = 5): 45 ± 5 mmHg | SaO2 ([1]; 12% O2 + 40 ppm NO, n = 5): 83.9 ± 5.7% | PAP ([1]; 12% O2 + 40 ppm NO, n = 5, p < 0.01 vs previous situation): 13.7 ± 1.7 mmHg | reversal of hypoxia-induced pulmonary vasoconstriction ([1]; 40 ppm NO, 12% v/v oxygen): reversed completely | binding to haemoglobin [2]: the most rapidly binding ligand to haemoglobin so far discovered
